Several values for one entry are separate records, joined by “and”; a condition that tells them apart may be missing. Equal entries are not always repeated. Where two headings read alike, the source gives them in different places.
How the values were obtained:
[1] = test system: Dirofilaria immitis L3/L4; assay: Dirofilaria immitis L3/L4 motility assay (DiroImager, 72 h); conditions: for % effect (motility), DIROIM L4: Dirofilaria immitis L4
C. elegans = C. elegans motor phenotype scoring on solid media (Punc/jerky-unc, coiled, paralyzed), wild-type young adults; type: in vivo, Caenorhabditis elegans; conditions: for any phene, mean % fraction of young adults exhibiting any phenotype (coiled, jerky-Unc or paralyzed) / atypical locomotion (number of animals) / coiled (number of animals) / no phene (number of animals) / paralyzed (number of animals) / any phene (mean % fraction of young adults exhibiting any phenotype: coiled, jerky-Unc or paralyzed): one hour; for any phene, mean % fraction of young adults exhibiting any phenotype (coiled, jerky-Unc or paralyzed) / any phene (mean % fraction of young adults exhibiting any phenotype: coiled, jerky-Unc or paralyzed): mean of three biological replicates; for atypical locomotion (number of animals) / coiled (number of animals) / no phene (number of animals) / paralyzed (number of animals): young adults, 20 animals per trial, single replicate counts; for EC50: Caenorhabditis elegans, any motor phenotype after 1 h on solid media, ± 95% CI, read-out: C. elegans - motor disruption EC50
rat VAChT = molecular target: T1, rat VAChT (Rattus norvegicus, UniProt Q62666); assay: [3H]Vesamicol competitive radioligand binding, PC12 cells expressing ratVAChT; conditions: for specific binding in % of total binding (corrected by nonspecific binding NB), mean: rVAChT-PC12, 21°C, 1% DMSO
T1 construct: expressed in transfected cells; host or cells: rat PC12 (PC12 A123.7) cells, stably transfected; shared by Dr. Ali Roghani (Texas Tech University)
T1 sequence (Q62666 1-530): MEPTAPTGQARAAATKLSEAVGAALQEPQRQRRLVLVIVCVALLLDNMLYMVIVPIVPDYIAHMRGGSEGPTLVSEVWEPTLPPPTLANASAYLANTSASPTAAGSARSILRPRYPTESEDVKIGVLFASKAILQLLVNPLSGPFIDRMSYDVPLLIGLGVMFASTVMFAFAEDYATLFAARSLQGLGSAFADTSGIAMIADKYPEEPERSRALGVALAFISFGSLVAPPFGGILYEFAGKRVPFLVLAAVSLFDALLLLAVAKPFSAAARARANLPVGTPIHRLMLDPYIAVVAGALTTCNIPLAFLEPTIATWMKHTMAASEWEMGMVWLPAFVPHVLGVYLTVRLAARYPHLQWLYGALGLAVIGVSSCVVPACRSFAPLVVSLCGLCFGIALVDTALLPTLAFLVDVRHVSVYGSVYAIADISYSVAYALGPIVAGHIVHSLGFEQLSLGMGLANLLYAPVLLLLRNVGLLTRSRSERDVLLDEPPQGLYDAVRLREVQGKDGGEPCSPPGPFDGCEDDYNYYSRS

[2] = test system: Dirofilaria immitis microfilariae; assay: Dirofilaria immitis microfilariae immobility assay (DiroImager, 72 h); conditions: for % effect (motility), DIROIM MF: Dirofilaria immitis microfilariae; for EC50: Dirofilaria immitis, 72 h, read-out: Dirofilaria immitis filariae EC50
Procedure, shortened: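 About 250 freshly purified microfilariae of the Missouri isolate per well in supplemented RPMI 1640, exposed to compound for 72 h. Motility scored by automated whole-plate optical imaging; medium with 1% DMSO as negative control.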

Pristionchus pacificus = Pristionchus pacificus motor disruption dose-response on solid media, 1 h; conditions: for mean % any phene (coiled, jerky-Unc or paralyzed): Pristionchus pacificus young adults, mean of three biological replicates; for EC50: Pristionchus pacificus, 1 h, read-out: P. pacificus motor disruption EC50
[3] = [3H]Vesamicol displacement, mean, read-out: ratVAChT Ki
[4] = conc 3.75, observed at one hour
[5] = 3.75uM, third c14 line of each analog
[6] = 15uM, second c14 line of each analog
[7] = 60uM, first c14 line of each analog
[8] = [3H]Vesamicol binding, PC12, experiment 1, read-out: expt 1 Ki (M) vs. rat VAChT (PC12)
[9] = [3H]Vesamicol binding, PC12, experiment 2, read-out: expt 2 Ki (M) vs. rat VAChT (PC12)
[10] = [3H]Vesamicol binding, rat VAChT (PC12), mean of 2-3 experiments, read-out: mean Ki

SMILES	% effect (motility), DIROIM L4 ([1]; 2 µM) [%]	% effect (motility), DIROIM L4 ([1]; 10 µM) [%]	% effect (motility), DIROIM L4 ([1]; 50 µM) [%]	EC50 (C. elegans) [µM]	Ki (rat VAChT; [3]) [M]	% effect (motility), DIROIM MF ([2]; 0.08 µM) [%]	% effect (motility), DIROIM MF ([2]; 0.4 µM) [%]	% effect (motility), DIROIM MF ([2]; 2 µM) [%]	% effect (motility), DIROIM MF ([2]; 10 µM) [%]	EC50 [2] [µM]	mean % any phene (coiled, jerky-Unc or paralyzed) (Pristionchus pacificus; [4]) [%]	mean % any phene (coiled, jerky-Unc or paralyzed) (Pristionchus pacificus; conc 15, observed at one hour) [%]	mean % any phene (coiled, jerky-Unc or paralyzed) (Pristionchus pacificus; conc 60, observed at one hour) [%]	EC50 (Pristionchus pacificus) [µM]	any phene (mean % fraction of young adults exhibiting any phenotype: coiled, jerky-Unc or paralyzed) (C. elegans; [5]) [%]	any phene (mean % fraction of young adults exhibiting any phenotype: coiled, jerky-Unc or paralyzed) (C. elegans; [6]) [%]	% effect (motility), DIROIM MF ([2]; 0.016 µM) [%]	any phene (mean % fraction of young adults exhibiting any phenotype: coiled, jerky-Unc or paralyzed) (C. elegans; [7]) [%]	Ki (rat VAChT; [8]) [M]	Ki (rat VAChT; [9]) [M]	also measured
CC1CCC(N2CCN(c3ccc([N+](=O)[O-])cc3)CC2)CC1 (stereo not drawn) [Nemacol-5]	10	100	100	7.3 ± 3.8	3.76e-07	0	0	20	80	4.5	0	15	100	16.5							% effect (motility), DIROIM L4 ([1]; 0.016 µM): 5%; % effect (motility), DIROIM L4 ([1]; 0.08 µM): 0%; % effect (motility), DIROIM L4 ([1]; 0.4 µM): 0%; activity against D. immitis (EC50) ([1]; either D. immitis assay of Fig. 4c): low micromolar activity; any phene, mean % fraction of young adults exhibiting any phenotype (coiled, jerky-Unc or paralyzed) (C. elegans; 3.75uM): 3.333%; atypical locomotion (number of animals) (C. elegans; 3.75uM): 0 and 3 and 1; coiled (number of animals) (C. elegans; 3.75uM): 0; no phene (number of animals) (C. elegans; 3.75uM): 20 and 17 and 19; paralyzed (number of animals) (C. elegans; 3.75uM): 0; any phene, mean % fraction of young adults exhibiting any phenotype (coiled, jerky-Unc or paralyzed) (C. elegans; 15uM): 97.5%; atypical locomotion (number of animals) (C. elegans; 15uM): 9 and 12 and 13; coiled (number of animals) (C. elegans; 15uM): 10 and 6 and 5 and 4; no phene (number of animals) (C. elegans; 15uM): 0 and 3; paralyzed (number of animals) (C. elegans; 15uM): 1 and 2 and 0 and 3 and 5; any phene, mean % fraction of young adults exhibiting any phenotype (coiled, jerky-Unc or paralyzed) (C. elegans; 60uM): 100%; atypical locomotion (number of animals) (C. elegans; 60uM): 1 and 3 and 0 and 2 and 16 and 15; coiled (number of animals) (C. elegans; 60uM): 16 and 12 and 14 and 13 and 0; no phene (number of animals) (C. elegans; 60uM): 0; paralyzed (number of animals) (C. elegans; 60uM): 3 and 5 and 6 and 4; % effect (motility), DIROIM MF ([2]; 50 µM): 100%
O=[N+]([O-])c1ccc(N2CCN(C3CCCCCC3)CC2)cc1 [Nemacol-19]	0	0	100	4.1 ± 1.4	4.62e-07	0	0	0	40	10.7					43.3333	97.5	0				
Cc1ccc(N2CCN(C3CCC(C)C3)CC2)cc1 (stereo not drawn) [Nemacol-41]	5	5	20	3.3 ± 1.4		0	0	0	0		9.167	67.5	100	10.7 ± 1.2	58.3333	98.3333	0	100	4.82e-07	3.76e-07	Ki (rat VAChT; [10]): 4.29e-07 M
Cc1ccc(N2CCN(CC3CC4C=CC3C4)CC2)cc1 (stereo not drawn) [Nemacol-43]	6	5	20	3.9		0	0	0	0		0	20.8333	76.4035	31.5 ± 4.9	33.7698	100	0	100	1.91e-07	1.26e-07	Ki (rat VAChT; [10]): 1.59e-07 M
O[C@@H]1CCCC[C@H]1N1CCC(c2ccccc2)CC1 [minus Vesamicol]																					specific binding in % of total binding (corrected by nonspecific binding NB), mean (rat VAChT; competitor 1.00E-05 M, experiment 2019-10-30, 2.92E-09 M 3H-vesamicol, 120 min): 0.0405%; specific binding in % of total binding (corrected by nonspecific binding NB), mean (rat VAChT; competitor 1.00E-05 M, experiment 2019-11-21, 2.20E-09 M 3H-vesamicol, 90 min): 1.18e-15%; specific binding in % of total binding (corrected by nonspecific binding NB), mean (rat VAChT; competitor 1.00E-06 M, experiment 2019-10-30, 2.92E-09 M 3H-vesamicol, 120 min): 5%; specific binding in % of total binding (corrected by nonspecific binding NB), mean (rat VAChT; competitor 1.00E-06 M, experiment 2019-11-21, 2.20E-09 M 3H-vesamicol, 90 min): 4%; specific binding in % of total binding (corrected by nonspecific binding NB), mean (rat VAChT; competitor 1.00E-07 M, experiment 2019-10-30, 2.92E-09 M 3H-vesamicol, 120 min): 29%; specific binding in % of total binding (corrected by nonspecific binding NB), mean (rat VAChT; competitor 1.00E-07 M, experiment 2019-11-21, 2.20E-09 M 3H-vesamicol, 90 min): 28%; specific binding in % of total binding (corrected by nonspecific binding NB), mean (rat VAChT; competitor 1.00E-08 M, experiment 2019-10-30, 2.92E-09 M 3H-vesamicol, 120 min): 79%; specific binding in % of total binding (corrected by nonspecific binding NB), mean (rat VAChT; competitor 1.00E-08 M, experiment 2019-11-21, 2.20E-09 M 3H-vesamicol, 90 min): 82%; specific binding in % of total binding (corrected by nonspecific binding NB), mean (rat VAChT; competitor 1.00E-09 M, experiment 2019-10-30, 2.92E-09 M 3H-vesamicol, 120 min): 94%; specific binding in % of total binding (corrected by nonspecific binding NB), mean (rat VAChT; competitor 1.00E-09 M, experiment 2019-11-21, 2.20E-09 M 3H-vesamicol, 90 min): 98%; specific binding in % of total binding (corrected by nonspecific binding NB), mean (rat VAChT; competitor 1.00E-10 M, experiment 2019-10-30, 2.92E-09 M 3H-vesamicol, 120 min): 97%; specific binding in % of total binding (corrected by nonspecific binding NB), mean (rat VAChT; competitor 1.00E-10 M, experiment 2019-11-21, 2.20E-09 M 3H-vesamicol, 90 min): 98%; specific binding in % of total binding (corrected by nonspecific binding NB), mean (rat VAChT; competitor 1.00E-11 M, experiment 2019-10-30, 2.92E-09 M 3H-vesamicol, 120 min): 95%; specific binding in % of total binding (corrected by nonspecific binding NB), mean (rat VAChT; competitor 1.00E-11 M, experiment 2019-11-21, 2.20E-09 M 3H-vesamicol, 90 min): 96%

— article PMC10066365, “Nemacol is a small molecule inhibitor of C. elegans vesicular acetylcholine transporter with anthelmintic potential” (Nature Communications, 2023)
